The values below come from patent US20090163586A1, “Bis-(Sulfonylamino) Derivatives in Therapy 205” (AstraZeneca AB, priority 2007, published 2009).

One may read the IC50 as the concentration that inhibits the measured activity by half. Low values mean greater potency, high ones weaker potency.

The experiment deals with T1, human mPGES-1 (Homo sapiens, UniProt O14684).
T1 sequence (O14684 1-152): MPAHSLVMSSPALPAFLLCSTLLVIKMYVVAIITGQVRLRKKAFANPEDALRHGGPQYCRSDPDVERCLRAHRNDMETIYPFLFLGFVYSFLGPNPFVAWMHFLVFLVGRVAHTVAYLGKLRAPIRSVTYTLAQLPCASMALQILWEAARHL
The experiment in a line: Microsomal prostaglandin E synthase biochemical assay. As to conditions: microsome preparation containing human mPGES-1; PGH2 10.8 μM, GSH 2.5 mM, pH 6.8; PGE2 by HTRF; average of at least n=2. The gist of the method:
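Human mPGES-1 microsomes at 2 μg/mL were pre-incubated 15 min with compound (60 μM to 0.002 μM) in 50 mM potassium phosphate pH 6.8 with 2.5 mM GSH. The reaction was started with 10.8 μM PGH2 and stopped after 1 minute with acidic ferric chloride/citrate. PGE2 was quantified by HTRF; IC50 is the mean of at least 2 runs.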

For the compound `NS(=O)(=O)c1ccccc1NS(=O)(=O)Cc1ccc(Cl)cc1` [Example 112, 2-[(4-Chlorophenyl)methylsulfonylamino]benzenesulfonamide], the IC50 worked out at 6.1 µM. In other words, the single-digit micromolar range.

Take `NS(=O)(=O)c1ccccc1NS(=O)(=O)c1cccc(-c2cccc(Cl)c2Cl)c1` [Example 113, 2-[[3-(2,3-Dichlorophenyl)phenyl]sulfonylamino]benzenesulfonamide]: half-maximal inhibition (IC50) required 0.48 µM.

Turning to `NS(=O)(=O)c1ccccc1NS(=O)(=O)c1cccc(-c2cc(F)cc(F)c2)c1` [Example 114, 2-[[3-(3,5-difluorophenyl)phenyl]sulfonylamino]benzenesulfonamide], the midpoint of inhibition, the IC50, lay at 0.83 µM.

The compound `COc1ccc(Cl)cc1-c1cccc(S(=O)(=O)Nc2ccccc2S(N)(=O)=O)c1` [Example 115, 3-(5-Chloro-2-methoxy-phenyl)-N-(2-sulfamoylphenyl)benzenesulfonamide] displayed a half-maximal inhibitory concentration (IC50) of 2.6 µM.

For `N#Cc1cccc(-c2cccc(S(=O)(=O)Nc3ccccc3S(N)(=O)=O)c2)c1` [Example 116, 2-[[3-(3-Cyanophenyl)phenyl]sulfonylamino]benzenesulfonamide], the IC50 was 1.7 µM.

`N#Cc1ccc(-c2cccc(S(=O)(=O)Nc3ccccc3S(N)(=O)=O)c2)cc1` [Example 117, 2-[[3-(4-Cyanophenyl)phenyl]sulfonylamino]benzenesulfonamide] showed an IC50 of 1.3 µM.

In turn, `COc1ncc(-c2cccc(S(=O)(=O)Nc3ccccc3S(N)(=O)=O)c2)c(OC)n1` [Example 118, 3-(2,4-Dimethoxypyrimidin-5-yl)-N-(2-sulfamoylphenyl)benzenesulfonamide] gave an IC50 of 4.7 µM. Against the preceding compound, the IC50 is about 3.6-fold higher.

`NS(=O)(=O)c1ccccc1NS(=O)(=O)c1cccc(-c2ccoc2)c1` [Example 119, 2-[[3-(3-Furyl)phenyl]sulfonylamino]benzenesulfonamide] yielded an IC50 of 4.5 µM.

On to `NS(=O)(=O)c1ccccc1NS(=O)(=O)c1cccc(-c2ccc3[nH]ccc3c2)c1` [Example 120, 2-[[3-(1H-Indol-5-yl)phenyl]sulfonylamino]benzenesulfonamide], for which half-maximal inhibition (IC50) was put at 3.3 µM.

In the case of `NS(=O)(=O)c1ccccc1NS(=O)(=O)c1cccc(-c2cccc(OC(F)(F)F)c2)c1` [Example 121, 2-[[3-[3-(Trifluoromethoxy)phenyl]phenyl]sulfonylamino]benzenesulfonamide], the IC50 is 0.22 µM.

Turning to `NS(=O)(=O)c1ccccc1NS(=O)(=O)c1ccc2c(c1)CCC2` [Example 122, N-(2-Sulfamoylphenyl)-2,3-dihydro-1H-indene-5-sulfonamide], it took 6.7 µM to reach half-maximal inhibition (IC50).

Turning to `CN1CCOc2cc(S(=O)(=O)Nc3ccccc3S(N)(=O)=O)ccc21` [Example 123, 7-Methyl-N-(2-sulfamoylphenyl)-10-oxa-7-azabicyclo[4.4.0]deca-1,3,5-triene-3-sulfonamide], the IC50 was 9.3 µM.

In turn, `NS(=O)(=O)c1ccccc1NS(=O)(=O)c1ccccc1-c1ccc(Cl)c(Cl)c1` [Example 124, 2-(3,4-Dichlorophenyl)-N-(2-sulfamoylphenyl)benzenesulfonamide] returned an IC50 of 1.3 µM.

With `NS(=O)(=O)c1ccccc1NS(=O)(=O)c1ccc(Oc2ncc(C(F)(F)F)cc2Cl)cc1` [Example 125, 2-[[4-[3-Chloro-5-(trifluoromethyl)pyridin-2-yl]oxyphenyl]sulfonylamino]benzenesulfonamide], the midpoint of inhibition, the IC50, lay at 7.2 µM.

Take `NS(=O)(=O)c1ccccc1NS(=O)(=O)c1ccc2c(c1)CCCC2` [Example 126]: it took 1.2 µM to reach half-maximal inhibition (IC50).

Consider `NS(=O)(=O)c1ccccc1NS(=O)(=O)c1ccc(OCc2ccccc2)cc1` [Example 127, 4-Phenylmethoxy-N-(2-sulfamoylphenyl)benzenesulfonamide], for which 5.1 µM corresponded to half-maximal inhibition (IC50).

The compound `NS(=O)(=O)c1ccccc1NS(=O)(=O)c1ccc(C2CCCCC2)cc1` [Example 128, 2-[(4-Cyclohexylphenyl)sulfonylamino]benzenesulfonamide] came in with an IC50 of 1.7 µM.

`NS(=O)(=O)c1ccccc1NS(=O)(=O)c1cccc(-c2ccccc2)c1` [Example 129, 3-Phenyl-N-(2-sulfamoylphenyl)benzenesulfonamide]: the IC50 came out at 2.5 µM.

Compound `Cn1nc(-c2ccc(S(=O)(=O)Nc3ccccc3S(N)(=O)=O)s2)cc1C(F)(F)F` [Example 130, 5-(1-Methyl-5-trifluoromethyl-1H-pyrazol-3-yl)-thiophene-2-sulfonic acid (2-sulfamoyl-phenyl)-amide] came in with an IC50 of 5.2 µM.

`NS(=O)(=O)c1ccccc1NS(=O)(=O)c1ccc(C(F)(F)F)cc1` [Example 131, N-(2-Sulfamoylphenyl)-4-(trifluoromethyl)benzenesulfonamide] gave an IC50 of 6.6 µM.

For `NS(=O)(=O)c1ccccc1NS(=O)(=O)c1cccc(-c2cc(Cl)ccc2Cl)c1` [Example 132, 2-[[3-(2,5-Dichlorophenyl)phenyl]sulfonylamino]benzenesulfonamide], the IC50 is 4.5 µM.

For the compound `NS(=O)(=O)c1ccccc1NS(=O)(=O)c1cccc(-c2cccc3c2oc2ccccc23)c1` [Example 133, 3-Dibenzofuran-4-yl-N-(2-sulfamoylphenyl)benzenesulfonamide], half-maximal inhibition (IC50) was put at 2.2 µM.

`NS(=O)(=O)c1ccccc1NS(=O)(=O)c1cccc(-c2ccc(C(F)(F)F)cc2)c1` [Example 134, 2-[[3-[4-(Trifluoromethyl)phenyl]phenyl]sulfonylamino]benzenesulfonamide] displayed an IC50 of 3.7 µM.

In turn, `COc1cccc(-c2cccc(S(=O)(=O)Nc3ccccc3S(N)(=O)=O)c2)c1` [Example 135, 3-(3-Methoxyphenyl)-N-(2-sulfamoylphenyl)benzenesulfonamide] had an IC50 of 8.3 µM.

`NS(=O)(=O)c1ccccc1NS(=O)(=O)c1cccc(-c2cc3ccccc3o2)c1` [Example 136, 3-Benzofuran-2-yl-N-(2-sulfamoylphenyl)benzenesulfonamide] had an IC50 of 3.8 µM.

In turn, `NS(=O)(=O)c1ccccc1NS(=O)(=O)c1cccc(-c2ccc3c(c2)CCO3)c1` [Example 137, 2-[[3-(2,3-Dihydrobenzofuran-5-yl)phenyl]sulfonylamino]benzenesulfonamide] showed an IC50 of 2.1 µM.

For `COc1ccc(-c2cccc(S(=O)(=O)Nc3ccccc3S(N)(=O)=O)c2)cn1` [Example 138, 3-(6-Methoxypyridin-3-yl)-N-(2-sulfamoylphenyl)benzenesulfonamide], the IC50 came out at 0.57 µM.

Compound `NS(=O)(=O)c1ccccc1NS(=O)(=O)c1cccc(-c2ccc(Cl)cc2Cl)c1` [Example 139, 2-[[3-(2,4-Dichlorophenyl)phenyl]sulfonylamino]benzenesulfonamide] displayed an IC50 of 1.8 µM.

In turn, `Cn1c(-c2cccc(S(=O)(=O)Nc3ccccc3S(N)(=O)=O)c2)cc2ccccc21` [Example 140, 3-(1-Methylindol-2-yl)-N-(2-sulfamoylphenyl)benzenesulfonamide] gave an IC50 of 2.9 µM.

With `NS(=O)(=O)c1ccccc1NS(=O)(=O)c1cccc(-c2cccc(C(F)(F)F)c2)c1` [Example 141, 2-[[3-[3-(Trifluoromethyl)phenyl]phenyl]sulfonylamino]benzenesulfonamide], the IC50 worked out at 3.1 µM.

For `NS(=O)(=O)c1ccccc1NS(=O)(=O)c1ccc(-c2cc3ccccc3o2)cc1` [Example 142, 4-Benzofuran-2-yl-N-(2-sulfamoylphenyl)benzenesulfonamide], the IC50 was 4.9 µM.
